Source: patent US6800653B2, “Epothilone derivatives” (priority 2001, dated 2004)

What was measured:
calf brain tubulin = experiment: In vitro tubulin polymerization; assay type: biochemical; conditions: interpolated concentration inducing an initial slope of 0.01 OD/minute; 1.0 mg/ml microtubule protein, 37°; read-out: Tubulin assay EC0.01
Method: In vitro Tubulin Polymerization
Twice cycled (2×) calf brain tubulin was prepared following the procedure of Williams and Lee (see Williams, R. C., Jr., and Lee, J. C. Preparation of tubulin from brain. Methods in Enzymology 85, Pt. D: 376-385, 1982) and stored in liquid nitrogen before use. Quantification of tubulin polymerization potency is accomplished following a modified procedure of Swindell, et al., (see Swindell, C. S., Krauss, N. E., Horwitz, S. B., and Ringel, L. Biologically active taxol analogues with deleted A-ring side chain substituents and variable C-2′ configurations. J. Med. Chem. 34: 1176-1184, 1991). These modifications, in part, result in the expression of tubulin polymerization potency as an effective concentration for any given compound. For this method, different concentrations of compound in polymerization buffer (0.1M MES, 1 mM EGTA, 0.5 mM MgCl2, pH 6.6) are added to tubulin in polymerization buffer at 37° in microcuvette wells of a Beckman (Beckman Instruments) Model DU 7400 UV spectrophotometer. A final microtubule protein concentration of 1.0 mg/ml and compound concentration of generally 2.5, 5.0, and 10 μM are used. Initial slopes of OD change measured every 10 seconds were calculated by the program accompanying the instrument after initial and final times of the linear region encompassing at least 3 time points were manually defined. Under these conditions linear variances were generally <10^−6, slopes ranged from 0.03 to 0.002 absorbance unit/minute, and maximum absorbance was 0.15 absorbance units. Effective concentration (EC0.01) is defined as the interpolated concentration capable of inducing an initial slope of 0.01 OD/minute rate and is calculated using the formula: EC0.01=concentration/slope. EC0.01 values are expressed as the mean with standard deviation obtained from 3 different concentrations. EC0.01 values for the compounds in this invention fall in the range 0.01-1000 μM.

[1] = system: HCT-116 human colon carcinoma cells; experiment: Cytotoxicity (in vitro) by MTS assay; assay type: cell-based; conditions: HCT-116, 72 hours incubation, MTS, read-out: HTC-116 assay IC50
Method: Cytoxicity was assessed in HCT-116 human colon carcinoma cells by MTS (3-(4,5-dimethylthiazol-2-yl)-5-(3-carboxymethoxyphenyl)-2-(4-sulphenyl)-2H-tetrazolium, inner salt) assay as reported in T. L. Riss, et. al., “Comparison of MTT, XTT, and a novel tetrazolium compound MTS for in vitro proliferation and chemosensitivity assays.,” Mol. Biol. Cell 3 (Suppl.): 184a, 1992. Cells were plated at 4,000 cell/well in 96 well microtiter plates and 24 hours later drugs were added and serial diluted. The cells were incubated at 37° form 72 hours at which time the tetrazolium dye, MTS at 333 μg/ml (final concentration), in combination with the electron coupling agent phenazine methosulfate at 25 μM (final concentration) was added. A dehydrogenase enzyme in live cells reduces the MTS to a form that absorbs light at […] which can be quantitated spectrophotometrically. The greater the absorbance the greater the number of live cells. The results are expressed as an IC50, which is the drug concentration required to inhibit cell proliferation (i.e. absorbance at 450 nm) to 50% of that of untreated control cells.

Structure (SMILES): C/C(=C\c1csc(C)n1)C1CC2[C@@H](CCC[C@H](C)[C@H](O)[C@@H](C)C(=O)C(C)(C)[C@@H](O)CC(=O)O1)N2C(=O)c1ccccc1 (relative stereo) [Example 22, 1S-[1R*,3R*(E),7R*,10S,11R*,12R*,16S*]]-17-Phenylcarbonyl-7,11-dihydroxy-8,8,10,12-tetramethyl-3-[1-methyl-2-(2-methyl-4-thiazolyl)ethenyl]-4-oxa-17-azabicyclo[14.1.0]heptadecane-5,9-dione.]
- EC50 (calf brain tubulin): 1400 nM
- IC50 [1]: 3 nM

Structure (SMILES): C/C(=C\c1csc(C)n1)C1CC2[C@@H](CCC[C@H](C)[C@H](O)[C@@H](C)C(=O)C(C)(C)[C@@H](O)CC(=O)O1)N2C(=O)c1cccs1 (relative stereo) [Example 23, [1S-[1R*,3R*(E),7R*,10S*,11R*,12R*,16S*]]-17-(2-Thienyl)carbonyl-7,11-dihydroxy-8,8,10,12-tetramethyl-3-[1-methyl-2-(2-methyl-4-thiazolyl)ethenyl]-4-oxa-17-azabicyclo[14.1.0]heptadecane-5,9-dione.]
- EC50 (calf brain tubulin): 1200 nM
- IC50 [1]: 1.6 nM

Structure (SMILES): CCOC(=O)N1C2CC(/C(C)=C/c3csc(C)n3)OC(=O)C[C@H](O)C(C)(C)C(=O)[C@H](C)[C@@H](O)[C@@H](C)CCC[C@H]21 (relative stereo) [Example 24]
- EC50 (calf brain tubulin): 1200 nM
- IC50 [1]: 7.7 nM
